In US9879303B2, “Chromogenic glucuronidase substrates and uses” (Glycosynth Limited, priority 2013, dated 2018):
Counter-ions that a name gives are not always drawn.

System: E. cloacae
Assay: screen of strains on agar plates (CPS ID 3 or Columbia agar)
Format: cell-based
Set-up: key: Red, Green, Black or Purple mean strong colour; Red, Green, Black or Purple mean strong colour; Red, Green, Black or Purple mean strong colour; Red, Green, Black or Purple mean strong colour; +/− means less colour than strong; Tr means a trace of colour, less than +/−; — means no colour
[1] = E. cloacae 260329R, 37° C. 18 hours
[2] = E. cloacae NCTC 11936, 37° C. 18 hours

O=C(O)[C@H]1O[C@@H](Oc2c[nH]c3ccc(Br)c(Cl)c23)[C@H](O)[C@@H](O)[C@@H]1O [X-β-D-glucuronide CHA salt, 5-bromo-4-chloro-3-indolyl β-D-glucuronide]
colour [1]: —
colour [2]: —

O=C(O)[C@H]1O[C@@H](Oc2c[nH]c3cc(Cl)ccc23)[C@H](O)[C@@H](O)[C@@H]1O [Rose-β-D-glucuronide CHA salt, 6-chloro-3-indolyl β-D-glucuronide]
colour [1]: —
colour [2]: —
